The results in this text go back to patent publication US6083981A, “Sulfonamide substituted aspartic acid interleukin-1β converting enzyme inhibitors” (Warner-Lambert Company, priority 1999, dated 2000).

Data set [1] deals with T1, ICE (Homo sapiens, UniProt P29466).
T1 sequence (P29466 120-297 limits assumed): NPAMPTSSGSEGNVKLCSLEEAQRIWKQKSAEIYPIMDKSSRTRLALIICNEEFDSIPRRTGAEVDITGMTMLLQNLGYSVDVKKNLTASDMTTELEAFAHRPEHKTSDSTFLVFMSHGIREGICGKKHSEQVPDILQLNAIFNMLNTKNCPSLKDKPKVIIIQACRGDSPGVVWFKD
T1 sequence (P29466 317-404 limits assumed): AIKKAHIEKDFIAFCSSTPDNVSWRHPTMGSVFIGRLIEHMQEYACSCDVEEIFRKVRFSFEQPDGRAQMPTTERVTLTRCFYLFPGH
Briefly: ICE inhibition, fluorometric Ki (Ac-Tyr-Val-Ala-Asp-AMC substrate). As to conditions: 0.24 nM ICE, 15 μM Ac-Tyr-Val-Ala-Asp-AMC, reversible competitive model. It is filed as biochemical. Here is the method: Substrate hydrolysis is monitored for 300 seconds by observing the fluorescence of released AMC using excitation at 380 nm and emission at 460 nm. Mean rates of substrate hydrolysis are evaluated by linear-regression analysis of the fluorescence vs time traces.

Data set [2] addresses T1, ICE. Kind of data set: ICE Colorimetric Dose-Response (IC50) Assay. Conditions: 24 nM ICE, 60 min preincubation, 50 μM Ac-Tyr-Val-Ala-Asp-pNA, pH 7.5, 25° C. In kind it is biochemical. The protocol:
Aliquots of each dilution are transferred to a microtitre plate in triplicate.
(§1) ICE enzyme is diluted to approximately 24 nM in HGE buffer (100 mM Hepes pH 7.5, 0.5 mM EDTA, 20% glycerol, 0.1% Bovine Serum Albumin (BSA), and activated by adding dithiothreitol (DTT) to a final concentration of 5 mM. The activated enzyme is then aliquoted into wells containing inhibitor or vehicle, and the plate is preincubated for 60 minutes at ambient temperature. Substrate (Ac--Tyr--Val--Ala--Asp--pNA) is added to each well to a final concentration of 50 μM, and plates are placed in the microtitre plate-reader thermostated to 25° C. Beginning 5 minutes after addition of substrate, absorbance (405 nm) of wells is monitored for 1 hour, and activity is calculated as the mean rate of change in absorbance during this interval.

A further data set concerns the target T2, Ich-2 (Caspase-4) (Homo sapiens, UniProt P49662).
T2 sequence (P49662 81-270 limits assumed): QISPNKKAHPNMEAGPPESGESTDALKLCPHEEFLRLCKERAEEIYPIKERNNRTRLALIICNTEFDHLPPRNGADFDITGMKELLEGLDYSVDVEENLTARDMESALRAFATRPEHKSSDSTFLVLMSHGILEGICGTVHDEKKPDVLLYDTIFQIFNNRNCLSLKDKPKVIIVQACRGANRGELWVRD
T2 sequence (P49662 290-377 limits assumed): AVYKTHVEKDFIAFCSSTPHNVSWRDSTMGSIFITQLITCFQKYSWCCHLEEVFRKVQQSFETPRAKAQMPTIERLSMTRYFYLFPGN
Briefly: Ich-2 (Caspase-4) Colorimetric Dose-Response (IC50) Assay. It is filed as biochemical. As to conditions: 64 nM enzyme, 60 μM Ac-Leu-Glu-Val-Asp-pNA. Here is the method: as §1
Inhibition of Ich-2 enzyme is assayed as described above for ICE, except that enzyme is used at 64 nM, and 60 μM of the Ich-2-specific substrate Ac--Leu--Glu--Val--Asp--pNA is used instead of the ICE substrate Ac--Tyr--Val--Ala--Asp--pNA.

For data set [3], the system named is IL-1β production in human peripheral blood mononuclear cells (PBMCs). Kind of data set: PBMC Cellular Assay, inhibition of LPS-stimulated IL-1β production. It is filed as cell-based. Conditions: PBMC; mature IL-1β by ELISA, 10 ng/mL LPS overnight, 2% human AB serum. The source says: (§2) Further evidence that compounds of Formula I, II, and III are inhibitors of ICE is provided by their ability to inhibit IL-1β production in human peripheral blood mononuclear cells (PBMCs) as described herein. PBMCs are isolated from heparinized blood by centrifugation over a ficoll cushion, then washed three times with phosphate-buffered saline. PBMCs are suspended in a medium containing RPMI 1640 with glutamine, penicillin, streptomycin, and 2% human AB serum, then plated at 10^6 cells per well in 96 well flat bottom plates. PBMCs are stimulated overnight with 10 ng/mL of lipopolysaccharide (LPS, E. Coli strain 0111:B4; Calbiochem) in the presence or absence of a compound of Formula I. Medium is harvested and the level of mature IL-1β was determined using an ELISA kit from R & D Systems. Compound inhibition is assessed by determining the concentration of agent which reduces IL-1β levels by 50%. Cells were cultured for an additional four hours in the presence of 3-(4,5-dimethylthiazol-2-yl)-2,5-diphenyltetrazolium bromide (MTT) to determine viability. Compound toxicity can, therefore, be assessed by determining the concentration of agent which kills 50% of the cells (IC50).

Data set [4] is described as follows: PBMC viability (MTT), compound toxicity. It is filed as cell-based. Conditions: human, MTT viability, additional four hours, concentration which kills 50% of the cells, read-out: PBMC TC50.
Text: as §2

pIC50, pKi: −log10 of the molar value.

“3-(2-Methylbutoxy-Benzenesulfonylamino)-4-Oxo-Butyric Acid [Example 30]” gave a negative-log Ki (pKi) at ICE [1] of 5.38. Moreover, the negative logarithm of the IC50 (pIC50) against ICE [2] was 4.43; at Ich-2 (Caspase-4), 3.66.

At ICE [1], `O=C[C@H](CC(=O)O)NS(=O)(=O)c1ccccc1-c1ccccc1` [Example 1, 3-(Biphenyl-2-Sulfoamino)-4-Oxo-Butyric Acid] showed a pKi of 5.80. In addition, the pIC50 was 4.69 at ICE [2], less than 4.00 in data set [3] and 4.06 at Ich-2 (Caspase-4). Further, the CC50 in data set [4] was more than 100 µM.

For the compound `O=C[C@H](CC(=O)O)NS(=O)(=O)c1ccccc1` [Example 2, 3-Benzenesulfonylamino-4-Oxo-Butyric Acid], the negative-log Ki (pKi) on ICE [1] is 5.17. Besides, the pIC50 against ICE [2] is 4.06; in data set [3], less than 4.00; against Ich-2 (Caspase-4) it was 3.59.

The compound `O=C[C@H](CC(=O)O)NS(=O)(=O)c1ccccc1Cc1ccccc1` [Example 3, 3-(2-Benzyl-Benzenesulfonylamino)-4-Oxo-Butyric Acid] showed a negative logarithm of the Ki (pKi) on ICE [1] of 5.43. The pIC50 is 4.43 against ICE [2] and 4.15 on Ich-2 (Caspase-4).

For `O=CC(CC(=O)O)NS(=O)(=O)c1ccccc1Oc1ccccc1` (centres unmarked) [Example 4, 4-Oxo-3-(2-Phenoxy-Benzenesulfonylamino)-Butyric Acid], the negative logarithm of the IC50 (pIC50) was 4.62 at ICE [2] and 4.28 against Ich-2 (Caspase-4).

For the compound `Cc1ccc(Oc2ccccc2S(=O)(=O)N[C@H](C=O)CC(=O)O)cc1` [Example 5, 4-Oxo-3-(2-p-Tolyloxy-Benzenesulfonylamino)-Butyric Acid], the pIC50 was 5.06 at ICE [2], 4.17 in data set [3] and 4.74 against Ich-2 (Caspase-4). Further, the CC50 in data set [4] is more than 100 µM.

As to `CC(C)c1ccc(Oc2ccccc2S(=O)(=O)NC(C=O)CC(=O)O)cc1` (centres unmarked) [Example 6, 3-[2-(4-Isopropyl-Phenoxy)-Benzenesulfonylamino]-4-Oxo-Butyric Acid], at ICE [1], the negative logarithm of the Ki (pKi) is 6.27. For the same compound, the negative logarithm of the IC50 (pIC50) is 5.28 against ICE [2], 4.63 in data set [3] and 5.21 against Ich-2 (Caspase-4). The CC50 in data set [4] is more than 100 µM.

For the compound `Cc1cccc(Oc2ccccc2S(=O)(=O)N[C@H](C=O)CC(=O)O)c1` [Example 7, 4-Oxo-3-(2-m-Tolyloxy-Benzenesulfonylamino)-Butyric Acid], the negative-log IC50 (pIC50) on ICE [2] was 4.97; in data set [3] it was 4.17; against Ich-2 (Caspase-4), 4.48. The CC50 in data set [4] was more than 100 µM.

Compound `CC(C)c1cccc(Oc2ccccc2S(=O)(=O)N[C@H](C=O)CC(=O)O)c1` [Example 8, 3-[2-(3-lsopropyl-Phenoxy)-Benzenesulfonylamino]-4-Oxo-Butyric Acid] showed a pKi on ICE [1] of 6.39. Further, the pIC50 at ICE [2] is 5.43; in data set [3], 4.35; against Ich-2 (Caspase-4), 5.21. Further, the CC50 in data set [4] is more than 100 µM.

In the case of `Cc1ccc(-c2ccccc2S(=O)(=O)NC(C=O)CC(=O)O)cc1` (centres unmarked) [Example 9, 3-(4'-Methyl-Biphenyl-2-Sulfonylamino)-4-Oxo-Butyric Acid], the pKi at ICE [1] was 5.19. Besides, the values for the pIC50 at ICE [2] and on Ich-2 (Caspase-4) were 4.18 and 3.96, respectively.

`CC(C)COc1ccccc1S(=O)(=O)NC(C=O)CC(=O)O` (centres unmarked) [Example 10, 3-(2-Isobutoxy-Benzenesulfonylamino)-4-Oxo-Butyric Acid] showed a pKi on ICE [1] of 5.38. Besides, the results for the pIC50 (on ICE [2]; in data set [3]; at Ich-2 (Caspase-4)) were 4.66, 4.05 and 3.50, respectively. In addition, the CC50 in data set [4] is more than 100 µM.

`CCCC(C)C(=O)Nc1ccccc1S(=O)(=O)N[C@H](C=O)CC(=O)O` (some centres unmarked) [Example 11, 3-[2-(2-Methyl-Pentanoylamino)-Benzenesulfonylamino]-4-Oxo-Butyric Acid] showed a negative logarithm of the Ki (pKi) on ICE [1] of 4.77. The pIC50 at ICE [2] is 4.26; against Ich-2 (Caspase-4), 3.24.

`Cc1ccccc1Oc1ccccc1S(=O)(=O)NC(C=O)CC(=O)O` (centres unmarked) [Example 12, 4-Oxo-3-(2-o-Tolyloxy-Benzenesulfonylamino)-Butyric Acid] had a pKi on ICE [1] of 5.52. Moreover, the pIC50 is 4.85 on ICE [2], 4.05 in data set [3] and 4.23 at Ich-2 (Caspase-4). Also, in data set [4], the CC50 was more than 100 µM.

`O=CC(CC(=O)O)NS(=O)(=O)c1ccccc1CCc1ccccc1` (centres unmarked) [Example 13, 4-Oxo-3-(2-Phenethyl-Benzenesulfonylamino)-Butyric Acid] gave a pKi on ICE [1] of 5.15. For the same compound, the figures for the negative logarithm of the IC50 (pIC50) against ICE [2] and at Ich-2 (Caspase-4) were 4.49 and 3.78, respectively.

On to `Cc1cc(Oc2ccccc2S(=O)(=O)NC(C=O)CC(=O)O)ccc1C(C)C` (centres unmarked) [Example 22, 3-[2-(4-Isopropyl-3-Methyl-Phenoxy)-Benzenesulfonylamino]-4-Oxo-Butyric Acid], for which the pIC50 against ICE [2] is 6.00; in data set [3] it was 4.60; against Ich-2 (Caspase-4), 4.12. The CC50 in data set [4] is more than 100 µM.

For `CCC(CC)c1ccc(Oc2ccccc2S(=O)(=O)NC(C=O)CC(=O)O)cc1` (centres unmarked) [Example 25, 3-{2-[4-(1-Ethyl-Propyl)-Phenoxy]-Benzenesulfonylamino}-4-Oxo-Butyric Acid], the pIC50 on ICE [2] was 5.46; in data set [3] it was 4.57; at Ich-2 (Caspase-4), 5.19. Also, the CC50 in data set [4] is more than 100 µM.

`Cc1cc(Oc2ccccc2S(=O)(=O)NC(C=O)CC(=O)O)cc(C)c1C` (centres unmarked) [Example 26, 4-Oxo-3-[2-(3,4,5-Trimethyl-Phenoxy)-Benzenesulfonylamino]-Butyric Acid]: the negative logarithm of the IC50 (pIC50) against ICE [2] was 5.11; in data set [3], 4.24; against Ich-2 (Caspase-4), 4.64. For the same compound, the CC50 in data set [4] is more than 100 µM.

At ICE [1], `Cc1ccccc1-c1ccccc1S(=O)(=O)NC(C=O)CC(=O)O` (centres unmarked) [Example 32, 3-(2'-Methyl-Biphenyl-2-Sulfonylamino)-4-Oxo-Butyric Acid] gave a negative-log Ki (pKi) of 5.15. For the same compound, the pIC50 on ICE [2] was 4.55; at Ich-2 (Caspase-4), 3.22.

For `O=CC(CC(=O)O)NS(=O)(=O)c1ccccc1-c1cccc2ccccc12` (centres unmarked) [Example 33, 3-(2-Naphthalen-1-yl-Benzenesulfonylamino)-4-Oxo-Butyric Acid], the negative logarithm of the Ki (pKi) at ICE [1] is 5.15. At Ich-2 (Caspase-4), this compound gave a pIC50 of 4.11.

Regarding `O=CC(CC(=O)O)NS(=O)(=O)c1cccc2ccccc12` (centres unmarked) [Example 34, 3-(Naphthalene-1-Sulfonylamino)-4-Oxo-Butyric Acid], the pKi on ICE [1] was 4.51. The pIC50 was 3.96 at ICE [2] and 3.22 against Ich-2 (Caspase-4).

As to `O=CC(CC(=O)O)NS(=O)(=O)c1ccccc1OCC1CCCO1` (centres unmarked) [Example 43, 4-Oxo-3-[2-(Tetrahydro-Furan-2-Ylmethoxy)-Benzenesulfonylamino]-Butyric Acid], the negative logarithm of the Ki (pKi) on ICE [1] was 5.11. In addition, the negative-log IC50 (pIC50) was 4.00 against ICE [2] and 2.70 at Ich-2 (Caspase-4).

In turn, `O=CC(CC(=O)O)NS(=O)(=O)c1ccccc1[N+](=O)[O-]` (centres unmarked) [Example 46, 3-(2-Nitro-Benzenesulfonylamino)-4-Oxo-Butyric Acid] showed a pKi at ICE [1] of 5.00. Also, the negative-log IC50 (pIC50) against ICE [2] was 3.89; on Ich-2 (Caspase-4), 3.28.
